Test results reported in patent publication US20260021180A1, “IMPROVING ADOPTIVE CELL TRANSFER THERAPY (ACT) TREATMENT” (YISSUM RESEARCH DEVELOPMENT COMPANY OF THE HEBREW …, priority 2022, published 2026).

What was measured:
HEK-293T cells [1] = assay: Extracellular acidification rate (ECAR), Seahorse analysis, HEK-293T cells; assay type: cell-based, human; conditions: trehalose 5 mM, oligomycin 1 μM, 2DG 50 mM, added in sequence
Experimental: FIG. 3: Treh and Tret1 co-expression allows utilization of Trehalose as a carbon source for glycolysis. Line graph of the Extra Cellular Acidification Rate (ECAR) of Tret1-3×Flag and Treh-GFP expressing (transduced with retrovirus expressing both Tret1-3×Flag and Treh-GFP) or wild-type HEK-293T cells. Trehalose was added at 5 mM, Oligomycin at 1 μM and 2DG (2-Deoxy-D-glucose) at 50 mM.
To directly examine this notion, whether trehalose restores glycolysis of Treh/Tret1 expressing cells was tested. For this purpose, the extracellular acidification rate (ECAR), as a proxy for lactate secretion, of Treh/Tret1 or wild-type cells, was analyzed using Seahorse analysis.

HEK-293T cells [2] = assay: Cell survival by PI staining (flow cytometry) of transfected HEK-293T cells in glucose-free, trehalose-supplemented medium; assay type: cell-based, human; conditions: four days
Experimental: (§1) FIGS. 2A-2C: Treh and Tret1 co-expression rescues the proliferation and survival of HEK-293T cells in glucose-free, trehalose-supplemented medium. (2A) Histograms of cell survival as measured by PI staining using a flow cytometer. HEK-293T cells were transfected with either Tret1-3×Flag expression plasmid, HA-Treh expression plasmid or both together. 48 h post-transfection medium was replaced to a glucose-free medium supplemented with the indicated trehalose concentrations. Four days later flow analysis was performed. (2B) Histograms of cell survival as measured by PI staining using a flow cytometer. HEK-293T cells were co-transfected with Tret1-3×Flag and HA-Treh expression plasmids or pCDNA3.1 (empty vector). 48 h post-transfection medium was replaced with glucose-free medium supplemented with the 25 mM trehalose. Four days later, flow analysis was performed. (2C) Bar graph of MMT analysis. HEK-293T cells were transfected with pCDNA3.1 (empty vector), Tret1-3×Flag or HA-Treh expression plasmids or both plasmids together. 48 h post-transfection medium was replaced with glucose-free medium supplemented with 25 mM trehalose. Ten days later, cell survival was measured by MTT assay.
(§2) To test the function of delivered Treh and Tret1 genes in HEK-293T cells the survival of Treh/Tret1 expressing cells was tested in the absence or presence of various trehalose concentrations in glucose-free media.

human CD8 T cells = assay: Metabolic isotope tracing (13C6-glucose vs 13C12-trehalose, LC-MS) in DmTret1-1B/Treh-expressing human CD8 T cells; assay type: cell-based; conditions: 24 h with 13C12-Trehalose vs 13C6-Glucose; glycolysis, pentose phosphate pathway, TCA cycle
Experimental: FIGS. 6A-6I: Human primary T cells utilize trehalose for glycolysis, proliferation and cytokine production. Human primary PBMCs were activated with anti-CD3 and anti-CD28 for 48 hours. Then, they were retrovirally transduced with Treh1 and a trehalose transporter. (6A) FACS analysis of the T cells transduced with Treh1-GFP and Dm-Tret1-1B-mKate2. CD8 T cells were gated, and expression was analyzed 48 h after transduction. (6B) FACS analysis of the T cells transduced with Treh1-GFP and Dm-Tret1-1A-mKate2. CD8 T cells were gated, and expression was analyzed 48 h after transduction. (6C) Normalized ECAR measured by Seahorse analysis following trehalose or glucose supplementation and oligomycin and 2DG injections of Treh1 or DmTret1-1B/Treh1-expressing CD8 T cells. (6D-G): DmTret1-1B/Treh-expressing human CD8 T cells were incubated for 24 h with 13C6-Glucose or 13C12-Trehalose. Then cell extracts and media were subjected to metabolic analysis using LC-MS. (6D) Levels of lactate isotopologues in the medium of the cells. (6E-G) Isotopologue distributions in the cell fraction of detected key metabolites generated during (6E) glycolysis, (6F) the TCA cycle and (6G) the phosphate pentose pathway. […] Cells were counted every 3-4 days. […] Media was collected and INF-γ concentration was measured by ELISA at optical density of 605 (O.D.605). […]

HEK-293T cells [3] = assay: MTT assay of transfected HEK-293T cells in glucose-free medium supplemented with trehalose; assay type: cell-based, human
Experimental: as §1, §2

O=CC[C@@H](O)[C@H](O)[C@H](O)CO [2-Deoxy-D-glucose, reference compound]
ECAR of HEK293T cells expressing Treh/Tret1 following addition (HEK-293T cells [1]): significantly decreased

CC[C@H]1/C=C/C=C/C[C@@H](C)[C@H](O)[C@@](C)(O)C(=O)[C@@H](C)[C@H](O)[C@@H](C)C(=O)[C@@H](C)[C@H](O)[C@@H](C)/C=C/C(=O)O[C@@H]2[C@H](C)[C@H](CC1)O[C@]1(CC[C@H](C)[C@H](C[C@@H](C)O)O1)[C@H]2C [oligomycin, reference compound]
ECAR of HEK293T cells expressing Treh/Tret1 following addition (HEK-293T cells [1]): did not lead to an elevation in ECAR

OC[C@H]1O[C@H](O[C@H]2O[C@H](CO)[C@@H](O)[C@H](O)[C@H]2O)[C@H](O)[C@@H](O)[C@@H]1O [trehalose]
rescue of survival of Treh/Tret1 expressing cells (HEK-293T cells [2]; HEK-293T co-transfected with Tret1-3×Flag and HA-Treh, glucose-free medium + 25 mM trehalose): could rescue the survival | rescue of survival of empty vector transfected cells (HEK-293T cells [2]; HEK-293T with pCDNA3.1 empty vector, glucose-free medium + 25 mM trehalose): not | survival of Treh/Tret1 expressing cells (HEK-293T cells [2]; HEK-293T, glucose-free media, 2 mM trehalose, PI staining): substantial rescue | survival of Treh/Tret1 expressing cells versus trehalose concentration (HEK-293T cells [2]; HEK-293T, glucose-free media, various trehalose concentrations): increased survival of the cells in correlation with the trehalose concentration | metabolic pathways into which the sugar integrates (human CD8 T cells): integrates into the same metabolic pathways as glucose | ECAR of HEK293T cells expressing Treh/Tret1 following addition (HEK-293T cells [1]): significant increase

B1: Tret1: Drosophila melanogaster trehalose transporter 1, long isoform A, 857 amino acids (SEQ ID NO: 5), expressed in human cells (protein)
chain: MSGRDNRGAGGGGGGHQPLSNAMGKLKEKLTRVGDELGYHRVESNLSTSNTATSLDTILPEDPFLFPQVSPQRHPQNTVRTQRLLEDEPPLSFRPLLEDDDINEPPTQQQQRTPLRASGSLELTPLPPPPTSLEIREHRDRQQRGAQGDELQRSKQSLKGSRVSFERRDTGNSNTNSNKAAESSDEDSFEEKRTGFQQQKATSVDHKGILKDLKHILANDNRRQFQAKKHVSLDVKGTRFLQDLLKESSSEEEFHKTRREFQGRKHQSLDPRVTFKLDKVLQGSSTDSDEEGEDAEHKRLIHRPKDITKPVIIDLKDLESESDEDFLTSRQHFQQQRSISTDSRKSRRLYEMDEMDNKRGENIRHAVPFVRQITEDGKPKLEVYRPTTNPIYIWTQVLAALSVSLGSLVVGFVSAYTSPALVSMTDRNITSFEVTQDAGSWVGGIMPLAGLAGGIAGGPLIEYLGRRNTILATAVPFIVSSLLIACAVNVAMVLCGRFLAGFCVGIASLSLPVYLGETVQPEVRGTLGLLPTAFGNIGILLCFVAGSFMNWSMLAFLGAALPVPFLILMFLIPETPRWFVGRGLEERARKALKWLRGKEADVEPELKGLMRSQADADRQASRNTMLELLKLNNLKPLSISLGLMFFQQFSGINAVIFYTVQIFKDAGSTIDGNLCTIIVGIVNFLATFIGIVLIDRAGRKILLYVSDIAMVLTLFVLGGFFYCKTYGPDVSHLGWLPLTCFVIYILGFSLGFGPIPWLMMGEILPAKIRGSAASVATAFNWFCTFVVTKTFQDLTVAMGAHGAFWLFGAICFVGLFFVIIYVPETQGKTLEDIERKMMGRVRRMSSVANIKPLSFNM
modifications: 3xFlag tag; Drosophila melanogaster
survival of mammalian cells with trehalose as the only sugar source (summary statement) (HEK-293T cells [3]): greatly improved survival
